Measured values reported in ChEMBL document CHEMBL5338747, “Discovery of Quaternized Pyridine-Thiazole-Pleuromutilin Derivatives with Broad-Spectrum Antibacterial and Potent Anti-MRSA Activity” (J Med Chem, 2023).
In brackets after ≈: the same amount, converted by molar mass.

Assays:
[1] = tested on: Staphylococcus aureus; assay: Antibacterial activity against methicillin-resistant Staphylococcus aureus ATCC 33591 assessed as inhibition of bacterial growth incubated for 24 hrs by broth microdilution method; format: functional
[2] = tested on: Staphylococcus aureus; assay: Antibacterial activity against methicillin-resistant Staphylococcus aureus ATCC 43300 assessed as inhibition of bacterial growth incubated for 24 hrs by broth microdilution method; format: functional
[3] = tested on: Staphylococcus aureus; assay: Antibacterial activity against […] assessed as inhibition of bacterial growth incubated for 24 hrs by broth microdilution method; format: functional; conditions: ATCC 29213
[4] = tested on: Staphylococcus epidermidis; assay: Antibacterial activity against methicillin-resistant Staphylococcus epidermidis ATCC 51625 assessed as inhibition of bacterial growth incubated for 24 hrs by broth microdilution method; format: functional
[5] = tested on: Acinetobacter baumannii; assay: Antibacterial activity against Acinetobacter baumannii ATCC 19606 assessed as inhibition of bacterial growth incubated for 24 hrs by broth microdilution method; format: functional
[6] = tested on: Salmonella enterica; assay: Antibacterial activity against Salmonella enterica ATCC 14028 assessed as inhibition of bacterial growth incubated for 24 hrs by broth microdilution method; format: functional
[7] = tested on: Escherichia coli; assay: Antibacterial activity against Escherichia coli ATCC 25922 assessed as inhibition of bacterial growth incubated for 24 hrs by broth microdilution method; format: functional
[8] = tested on: Escherichia coli; assay: Antibacterial activity against Escherichia coli CMCC 44103 assessed as inhibition of bacterial growth incubated for 24 hrs by broth microdilution method; format: functional
[9] = Aqueous solubility of the compound in physiological saline measured after 12 hrs by UV spectrophotometric analysis; format: physicochemical

Row | SMILES | MIC [1] [µg/mL] | MIC [2] [µg/mL] | MIC [3] [µg/mL] | MIC [4] [µg/mL] | MIC [5] [µg/mL] | MIC [6] [µg/mL] | MIC [7] [µg/mL] | MIC [8] [µg/mL] | solubility at 12 h [9] [µM]
1 | C=C[C@]1(C)C[C@@H](OC(=O)CSc2nc(-c3cc[n+](Cc4ccc(OC(F)(F)F)cc4)cc3)cs2)[C@]2(C)[C@H](C)CC[C@]3(CCC(=O)[C@H]32)[C@@H](C)[C@@H]1O.[Br-] | 2 | 2 | 2 | 4 | 8 | 4 | 2 | 32 | 537
2 | Br.C=C[C@]1(C)C[C@@H](OC(=O)CSc2nc(-c3cc[n+](Cc4ccc([N+](=O)[O-])o4)cc3)cs2)[C@]2(C)[C@H](C)CC[C@]3(CCC(=O)[C@H]32)[C@@H](C)[C@@H]1O | 32 | 8 | 4 | 8 | 16 | 32 | 8 | 64 | 1650
3 | C=C[C@]1(C)C[C@@H](OC(=O)CSc2nc(-c3cc[n+](CCCCCCCCCC)cc3)cs2)[C@]2(C)[C@H](C)CC[C@]3(CCC(=O)[C@H]32)[C@@H](C)[C@@H]1O.[Br-] | 1 | 2 | 0.25 | 2 | 4 | 1 | 2 | 4 | 203
4 | C=C[C@]1(C)C[C@@H](OC(=O)CSc2nnc(-c3ccncc3)o2)[C@]2(C)[C@H](C)CC[C@]3(CCC(=O)[C@H]32)[C@@H](C)[C@@H]1O | 64 (≈ 119 µM) | 128 (≈ 237 µM) | 16 (≈ 29.6 µM) | 128 (≈ 237 µM) | 128 (≈ 237 µM) | 64 (≈ 119 µM) | > 128 | 128 (≈ 237 µM) | 
5 | C=C[C@]1(C)C[C@@H](OC(=O)CSc2nnc(-c3cc[n+](Cc4ccc(C#N)cc4)cc3)o2)[C@]2(C)[C@H](C)CC[C@]3(CCC(=O)[C@H]32)[C@@H](C)[C@@H]1O.[Br-] | 32 | 16 | 16 | 64 | > 128 | 32 | 64 | 64 | 
6 | Br.C=C[C@]1(C)C[C@@H](OC(=O)CSc2nnc(-c3cc[n+](Cc4ccc([N+](=O)[O-])cc4)cc3)o2)[C@]2(C)[C@H](C)CC[C@]3(CCC(=O)[C@H]32)[C@@H](C)[C@@H]1O | 32 | 64 | 32 | 32 | 64 | 128 | > 128 | 128 | 
7 | C=C[C@]1(C)C[C@@H](OC(=O)CSc2nc(-c3cc[n+](Cc4ccccc4)cc3)cs2)[C@]2(C)[C@H](C)CC[C@]3(CCC(=O)[C@H]32)[C@@H](C)[C@@H]1O.[Br-] | 1 |  | 0.125 | 4 | 4 |  |  | 0.25 | 871
8 | C=C[C@]1(C)C[C@@H](OC(=O)CSc2nc(-c3ccncc3)cs2)[C@]2(C)[C@H](C)CC[C@]3(CCC(=O)[C@H]32)[C@@H](C)[C@@H]1O | 16 (≈ 28.8 µM) | 32 (≈ 57.7 µM) | 8 (≈ 14.4 µM) | 32 (≈ 57.7 µM) | 64 (≈ 115 µM) | 32 (≈ 57.7 µM) | 64 (≈ 115 µM) | 32 (≈ 57.7 µM) | 
9 | C=C[C@]1(C)C[C@@H](OC(=O)CSc2nnc(-c3cc[n+](Cc4ccccc4)cc3)o2)[C@]2(C)[C@H](C)CC[C@]3(CCC(=O)[C@H]32)[C@@H](C)[C@@H]1O.[Br-] | 64 | 32 | 16 | 128 | 128 | 32 | 128 | 64 | 
10 | C=C[C@]1(C)C[C@@H](OC(=O)CSc2nnc(-c3cc[n+](Cc4ccc(C)cc4)cc3)o2)[C@]2(C)[C@H](C)CC[C@]3(CCC(=O)[C@H]32)[C@@H](C)[C@@H]1O.[Br-] | 16 | 16 | 4 | 64 | 128 | 32 | 32 | 64 | 
